Laboratory results reported in BindingDB's records for doi:10.1016/j.chembiol.2016.10.011 (H. Lee Moffitt Cancer Center & Research Institute, 2016).

Legend:
[1] = target: T1, GDH/6PGL endoplasmic bifunctional protein (Homo sapiens, UniProt O95479); assay: H6PD Activity Assay
T1 sequence (O95479 whole entry): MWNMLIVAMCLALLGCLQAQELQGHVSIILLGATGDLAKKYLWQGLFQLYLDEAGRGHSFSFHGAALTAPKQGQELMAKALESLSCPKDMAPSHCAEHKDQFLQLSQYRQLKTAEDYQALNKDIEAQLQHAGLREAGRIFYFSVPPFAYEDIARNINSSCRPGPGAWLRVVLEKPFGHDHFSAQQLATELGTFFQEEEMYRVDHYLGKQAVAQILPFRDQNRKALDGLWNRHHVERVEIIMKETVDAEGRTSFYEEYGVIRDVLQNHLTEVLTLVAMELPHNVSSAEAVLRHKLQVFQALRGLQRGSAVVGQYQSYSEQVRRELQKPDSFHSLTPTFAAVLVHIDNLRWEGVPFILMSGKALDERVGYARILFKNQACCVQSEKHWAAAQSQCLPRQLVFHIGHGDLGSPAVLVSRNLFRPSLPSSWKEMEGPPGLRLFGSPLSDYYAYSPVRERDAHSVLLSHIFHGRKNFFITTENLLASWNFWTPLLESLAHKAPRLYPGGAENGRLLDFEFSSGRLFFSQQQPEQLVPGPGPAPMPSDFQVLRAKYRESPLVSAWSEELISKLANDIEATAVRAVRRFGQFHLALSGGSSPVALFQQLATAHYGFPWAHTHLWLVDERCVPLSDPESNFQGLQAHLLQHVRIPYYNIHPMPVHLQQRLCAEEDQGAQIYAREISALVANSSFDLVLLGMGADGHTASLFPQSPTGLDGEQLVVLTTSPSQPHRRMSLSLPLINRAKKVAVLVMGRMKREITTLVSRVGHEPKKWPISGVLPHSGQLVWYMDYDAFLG
Protocol: HEK293 H6PD-OE and HEK293 pellets were lysed and the lysate was quantified with the Bradford protein assay. Reaction mix containing galactose-6-phosphate (Gal6P) was combined with increasing concentrations of PARPi or DMSO. As an additional control, reaction mix without substrate was combined with HEK293 H6PD-OE lysate. Lysate from HEK293 or HEK293 H6PD-OE was added to each well to start the reactions. The absorbance at 340 nm (NADPH) was measured for 90 min at 10 min intervals. The 60 min data, which were within the linear range, was used for analysis. Background absorbance was subtracted and the H6PD activity of theHEK293 H6PD-OE lysates treated with PARPi was normalized to the DMSO control.

[2] = target: Poly [ADP-ribose] polymerase 1 (Homo sapiens, UniProt P09874); assay: In Vitro PARP1 Activity Assay
Protocol: Inhibition of PARP1 was assessed using the Universal Chemiluminescent PARPKit. Luminescence readings were normalized to controls and fit to a sigmoidaldose-response curve using GraphPad Prism 6 to determine IC50 values.

Poly [ADP-ribose] polymerase 1, sequence (P09874 whole entry): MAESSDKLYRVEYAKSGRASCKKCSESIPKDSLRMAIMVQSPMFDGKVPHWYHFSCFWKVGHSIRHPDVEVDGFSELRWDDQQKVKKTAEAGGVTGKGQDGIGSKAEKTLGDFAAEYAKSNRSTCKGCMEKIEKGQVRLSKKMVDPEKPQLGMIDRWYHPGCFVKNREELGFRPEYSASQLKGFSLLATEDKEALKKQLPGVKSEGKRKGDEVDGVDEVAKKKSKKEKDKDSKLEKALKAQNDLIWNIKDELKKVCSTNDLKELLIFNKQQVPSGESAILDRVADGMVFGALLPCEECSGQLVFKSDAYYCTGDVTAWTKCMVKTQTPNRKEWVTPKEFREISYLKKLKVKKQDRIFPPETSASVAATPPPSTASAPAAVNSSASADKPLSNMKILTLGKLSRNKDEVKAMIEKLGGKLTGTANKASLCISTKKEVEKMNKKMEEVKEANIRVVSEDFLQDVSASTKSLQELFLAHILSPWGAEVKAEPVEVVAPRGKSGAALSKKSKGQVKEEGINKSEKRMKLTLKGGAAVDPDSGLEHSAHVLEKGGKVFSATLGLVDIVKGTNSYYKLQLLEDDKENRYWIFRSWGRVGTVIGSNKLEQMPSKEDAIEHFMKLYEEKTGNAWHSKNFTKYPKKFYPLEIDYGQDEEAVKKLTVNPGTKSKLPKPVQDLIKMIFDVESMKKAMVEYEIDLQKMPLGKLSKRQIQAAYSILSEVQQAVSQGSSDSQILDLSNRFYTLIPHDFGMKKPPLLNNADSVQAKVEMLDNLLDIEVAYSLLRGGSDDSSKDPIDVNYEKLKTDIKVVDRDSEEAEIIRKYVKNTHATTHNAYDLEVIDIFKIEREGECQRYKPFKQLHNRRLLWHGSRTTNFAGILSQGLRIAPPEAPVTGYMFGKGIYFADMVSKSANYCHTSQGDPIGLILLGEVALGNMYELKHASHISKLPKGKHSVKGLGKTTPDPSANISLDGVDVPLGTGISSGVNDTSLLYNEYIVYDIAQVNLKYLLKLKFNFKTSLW

SMILES	IC50 [1]	IC50 [2]
NCCCC(=O)N1CCN(C(=O)c2cc(Cc3n[nH]c(=O)c4ccccc34)ccc2F)CC1 [c-Olaparib]		5.9 nM
CN(CCCN)Cc1ccc(-c2[nH]c3cc(F)cc4c3c2CCNC4=O)cc1 [c-Rucaparib]		4.4 nM
C[C@]1(c2nc3c(C(N)=O)cccc3[nH]2)CCCN1CCCN [c-Veliparib]		8.4 nM

Continued, values first:

IC50 [1]	IC50 [2]	SMILES
18000 nM		CNCc1ccc(-c2[nH]c3cc(F)cc4c3c2CCNC4=O)cc1 [AG-014699]
	48.4 nM	NCCCN1CCC[C@@H](c2ccc(-n3cc4cccc(C(N)=O)c4n3)cc2)C1 [c-Niraparib]
